From US20090118310A1, “Activated Cdc42-associated kinase (ACK) as a therapeutic target for Ras-induced cancer” (UNIVERSITY OF MEDICINE AND DENTISTRY OF NEW JERSEY, priority 2005, published 2009)
d = 2'-deoxy (DNA); r = 2'-OH (RNA)

What was measured:
[1] = molecular target: T1, ACK-1 kinase (GST-ACKD, amino acids 101-441) (Homo sapiens, UniProt Q07912); assay: In vitro kinase assay of GST-ACKD with MBP as substrate; type: biochemical; details: FIG. 4C dose response, FIG. 4D inhibitors at 200 nmol/L
T1 construct: made in house; host or cells: Escherichia coli BL21 (pGEX-2TH vector)
Method: Escherichia coli BL21 cells transformed with pGEX-ACKD were grown at 30° C. to early logarithmic phase and protein expression was induced by adding 0.1 mmol/L isopropyl-L-thio-β-D-galactopyranoside. After 3 hours of incubation, cells were harvested, resuspended in lysis buffer [50 mmol/L Tris (pH 7.5), 0.73 mol/L sucrose, 5 mmol/L MgCl2, 0.5% (v/v) NP40], and disrupted by sonication. Cells were centrifuged at 10,000×g for 30 minutes at 4° C. The supernatant was applied to the glutathione-Sepharose column equilibrated with WED buffer [20 mmol/L Tris (pH 7.5), 2 mmol/L MgCl2, 1 mmol/L DTT] followed by washing with WED buffer. GST-ACKD was eluted with 5 mmol/L glutathione solution in 50 mmol/L Tris (pH 9.6). The eluate was dialyzed in WED buffer overnight and concentrated on a sucrose gradient. The expected size of the fusion protein (GST-ACKD) was confirmed by SDS-PAGE (data not shown), and the protein was used for kinase assays as described below.
The purified GST-ACKD (˜5 μg per reaction) was incubated in kinase reaction buffer [50 mmol/L HEPES-KOH (pH 7.2), 10 mmol/L magnesium acetate, 5 mmol/L DTT] containing 7.5 μg MBP, 100 μmol/L ATP, and 4 μCi [γ-^33P]ATP for 10 minutes at 30° C. Reactions were stopped by addition of 5× Laemmli SDS sample buffer. Proteins were separated by SDS-PAGE, and radioactivity incorporated into the substrate was quantified by using the Kodak Imaging Station 2000R. For kinase inhibition experiments, GST-ACKD was preincubated with individual inhibitors in kinase buffer or kinase buffer alone (control) before the addition of MBP following the same protocol as described above. Experiments were done in triplicate.
Several compounds were screened to examine their potency in inhibiting the kinase activity of ACK in vitro. […]
Different kinase inhibitors were added to the ACK-1 kinase reaction as described above in General Procedures. Phosphorylation of MBP was determined by SDS-PAGE and autoradiography. The level of MBP phosphorylation was determined by scanning MBP bands using Kodak Imaging Station 2000R and plotted as arbitrary units. […]

[2] = test system: ACK-1; assay: ACK-1 protein level after siRNA transfection (Western blot); type: cell-based
Method: (§1) A pair of cRNA primers of 21 nucleotides (Dharmacon Research, Inc., Lafayette, Co.) corresponding to the 5′ noncoding of the ACK-1 cDNA (5′-CAUUACCCGCCUAUCUCAUdTdT-3′ and 5′-AUGAGAUAGGCGGGUAAUGdTdT-3′) were annealed to form siRNA (a 19-nucleotide duplex stem with two-nucleotide overhangs on either side) according to the instructions provided by the manufacturer. v-Ha-Ras-transformed or parental NIH 3T3 cells were seeded into 6- or 24-well plates and incubated overnight. The annealed double-stranded ACK siRNA (0.16, 0.4, or 0.8 nmol/L in DMEM) or the sense strand oligonucleotide of ACK siRNA (0.8 nmol/L) was complexed with Cellfectin. siRNA:Cellfectin complexes were added to the serum-free medium and incubated for 3 hours. Cells were then replenished with medium containing 10% FCS and incubated for another 21 hours or as indicated elsewhere. Cells were collected and counted using a hemocytometer; alternatively, cell lysates were prepared for Western blotting. Western blotting was done using ACK-1 antibodies. […]
After 24 hours of transfection, cells were collected and lysed with Laemmli SDS sample buffer. Proteins were separated by SDS-PAGE and the level of ACK-1 protein was determined by Western blotting using antibodies against ACK-1. […]

[3] = test system: v-Ha-Ras-transformed NIH 3T3 cells; assay: Growth of v-Ha-Ras-transformed cells after siRNA transfection (cell counting); type: cell-based; details: FIG. 2C; counted every 24 hours
Method: as §1
(§2) After transfection with siRNA at different concentrations (in nmol/L), v-Ha-Ras transformed and parental NIH 3T3 cells were trypsinized and collected every 24 hours. Cell numbers were counted in triplicate.

[4] = test system: parental NIH 3T3 cells; assay: Growth of parental NIH 3T3 cells after siRNA transfection (cell counting); type: cell-based; details: FIG. 2D; counted every 24 hours
Method: as §1, §2

[5] = test system: v-Ha-Ras-transformed NIH 3T3 cells; assay: Induction of apoptosis in v-Ha-Ras-transformed cells (PARP and ICAD cleavage, cytochrome c release, DNA fragmentation); type: cell-based; details: PARP cleavage, ICAD cleavage, chromosomal DNA fragmentation, FIGS. 3A-D
Method: (§3) v-Ras-transformed cells (1×10^5) were seeded in a 35 mm dish and incubated under standard cell culture conditions overnight. Cells in DMEM were treated with Cellfectin, the sense strand of the siRNA:Cellfectin complex or the siRNA:Cellfectin complex for 3 hours. The medium was then replaced with DMEM containing 10% FCS and incubated for 21 hours at 37° C. Cells were harvested and used for Western blotting with specific antibodies or for cell cycle or caspase activation assays. For cell cycle and caspase activation assays, cells were resuspended in PBS containing FITC-VAD-fmk for 10 minutes at room temperature. The cells were then fixed with ice-cold 70% ethanol for 30 minutes at 4° C. Following a rinse with PBS, the cells were resuspended in PBS containing RNase (0.1 mg/mL) and then stained with propidium iodine (10 μg/mL) for 10 minutes at room temperature. Cellular fluorescence from a sample of 15,000 cells was analyzed using a Coulter EPICS Profile II Flow Cytometer (Coulter Electronics, Miami, Fla.). Fluorescence excited at 488 nm was detected using a 525±20 band pass filter. Histograms were analyzed using EPICS Workstation Software (version 4).
v-Ras-transformed cells (5×10^5) were seeded in 35 mm dishes and incubated overnight under standard cell culture conditions. […]

[6] = test system: v-Ha-Ras-transformed cells; assay: Cell cycle analysis of v-Ha-Ras-transformed cells by flow cytometry; type: cell-based; details: data not shown
Method: as §3

T1 sequence (Q07912 38-378 H250G): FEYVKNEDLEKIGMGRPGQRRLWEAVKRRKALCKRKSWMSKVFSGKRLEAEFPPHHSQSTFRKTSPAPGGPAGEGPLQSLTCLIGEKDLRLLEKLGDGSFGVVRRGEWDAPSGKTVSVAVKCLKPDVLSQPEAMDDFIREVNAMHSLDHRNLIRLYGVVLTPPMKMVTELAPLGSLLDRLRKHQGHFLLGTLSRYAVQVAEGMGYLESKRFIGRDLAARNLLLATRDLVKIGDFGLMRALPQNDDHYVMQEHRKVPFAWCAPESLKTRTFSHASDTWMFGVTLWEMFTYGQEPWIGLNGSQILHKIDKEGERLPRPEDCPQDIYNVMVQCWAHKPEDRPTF

Row | Compound | inhibition of kinase activity of ACK (MBP phosphorylation) [1] | level of ACK-1 at 0.8 nmol/L siRNA ([2]; 0.8 nmol/L, v-Ha-Ras-transformed and parental NIH 3T3 cells) | expression of ACK-1 ([2]; siRNA 0.16, 0.4 or 0.8 nmol/L, 24 hours, FIGS. 2A and B) | growth of v-Ha-Ras-transformed cells after transfection [3] | growth of parental NIH 3T3 cells after transfection [4] | induction of apoptosis (apoptosis markers) [5] | cell cycle arrest [6]
1 | O=c1c(-c2ccc(O)cc2)coc2cc(O)cc(O)c12 [genistein] | very weak activity |  |  |  |  |  | 
2 | O=c1c(O)c(-c2ccc(O)c(O)c2)oc2cc(O)cc(O)c12 [quercetin] | very weak activity |  |  |  |  |  | 
3 | ACK-1 siRNA: annealed 21-nt pair 5′-CAUUACCCGCCUAUCUCAUdTdT-3′ / 5′-AUGAGAUAGGCGGGUAAUGdTdT-3′ corresponding to the 5′ noncoding of ACK-1 cDNA (chain 1 CAUUACCCGCCUAUCUCAUTT; chain 2 AUGAGAUAGGCGGGUAAUGTT; sugars from the 5' end r19 d2, backbone not given here) |  | reduced the level of ACK-1 significantly | reduced the expression of ACK-1 in a dose-dependent manner | inhibited the growth of v-Ha-Ras-transformed cells in a dose dependent manner | did not affect the growth of parental NIH 3T3 cells | induced apoptosis | did not block v-Ha-Ras-transformed cells at any particular stage of the cell cycle
